Experimental data: PubChem BioAssay AID330 (DTP/NCI, 2004)
Values joined by “and” are separate entries in the source; they are usually repeats but may differ in a detail not shown here. Identical values can stand only once. Toxic doses and inconclusive results are not listed.

System: P388 leukemia ip, CD2F1 mice, survival T/C
Assay: NCI In Vivo Anticancer Drug Screen. Data for tumor model P388 Leukemia (intraperitoneal) in CD2F1 (CDF1) mice
Details: endpoint: median survival time, higher = longer survival
Procedure, shortened: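 Mice carrying the transplanted tumor received test compound or vehicle. Survival was recorded in each group, and the value is the treated-group measurement divided by that of the vehicle-treated control group.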

[1] = dose: 50.0 mg/kg/injection, schedule: Q01DX005 (ip), vehicle: saline with Tween-80
[2] = dose: 100.0 mg/kg/injection, schedule: Q01DX005 (ip), vehicle: saline with Tween-80

In the case of `CCC1COC(CC)N1` (centres undefined), the T/C [1] was 113 % of control and 95 % of control and the T/C [2] was 103 % of control.
`NC(CCSCNc1ncnc2c1ncn2C1OC(CO)C(O)C1O)C(=O)O` (centres undefined) was tested, and the T/C (dose: 100.0 mg/kg/injection, schedule: Q04DX002 (ip), vehicle: saline with Tween-80) was 97 % of control, the T/C (dose: 200.0 mg/kg/injection, schedule: Q04DX002 (ip), vehicle: saline with Tween-80) was 93 % of control and the T/C (dose: 400.0 mg/kg/injection, schedule: Q04DX002 (ip), vehicle: saline with Tween-80) was 93 % of control.
For `N#CCCOCNC(=O)NCOCCC#N`, the T/C (dose: 60.0 mg/kg/injection, schedule: Q01DX005 (ip), vehicle: saline with Tween-80) was 96 % of control, the T/C (dose: 120.0 mg/kg/injection, schedule: Q01DX005 (ip), vehicle: saline with Tween-80) was 97 % of control and the T/C (dose: 240.0 mg/kg/injection, schedule: Q01DX005 (ip), vehicle: saline with Tween-80) was 90 % of control.
For `O=C(Nc1ccccc1C(F)(F)F)c1cccc(Cl)c1`, the T/C (dose: 100.0 mg/kg/injection, schedule: Q04DX003 (ip), vehicle: saline + alcohol) was 109 % of control, the T/C (dose: 200.0 mg/kg/injection, schedule: Q04DX003 (ip), vehicle: saline + alcohol) was 100 % of control and the T/C (dose: 400.0 mg/kg/injection, schedule: Q04DX003 (ip), vehicle: saline + alcohol) was 100 % of control.
For `COc1cccc2c1C(=O)c1c(O)c3c(c(O)c1C2=O)CC(O)(/C(C)=N/NC(=O)CCCCCCCCC(=O)N/N=C(\C)C1(O)Cc2c(O)c4c(c(O)c2C(OC2CC(N)C(O)C(C)O2)C1)C(=O)c1c(OC)cccc1C4=O)CC3OC1CC(N)C(O)C(C)O1` (centres undefined), the T/C (dose: 3.13 mg/kg/injection, schedule: Q01DX009 (ip), vehicle: water) was 155 % of control, the T/C (dose: 6.25 mg/kg/injection, schedule: Q01DX009 (ip), vehicle: water) was 174 % of control and the T/C (dose: 12.5 mg/kg/injection, schedule: Q01DX009 (ip), vehicle: water) was 221 % of control. For the same molecule, the T/C (dose: 25.0 mg/kg/injection, schedule: Q01DX009 (ip), vehicle: water) was 99 % of control.
`CC1(C)OC2(C)CCC1C1C2N1C(=O)Nc1ccccc1` (centres undefined) was tested, and the T/C [1] was 101 % of control, the T/C [2] was 106 % of control and the T/C (dose: 200.0 mg/kg/injection, schedule: Q01DX005 (ip), vehicle: saline with Tween-80) was 101 % of control.
`O=[N+]([O-])c1cccc(NC(c2ccccc2)S(=O)(=O)O)c1` (centres undefined) was tested, and the T/C (dose: 50.0 mg/kg/injection, schedule: Q01DX009 (ip), vehicle: saline) was 104 % of control, the T/C (dose: 100.0 mg/kg/injection, schedule: Q01DX009 (ip), vehicle: saline) was 114 % of control and the T/C (dose: 200.0 mg/kg/injection, schedule: Q01DX009 (ip), vehicle: saline) was 106 % of control.
With `[Ni].c1c[nH]cn1.c1c[nH]cn1.c1c[nH]cn1.c1c[nH]cn1.c1c[nH]cn1.c1c[nH]cn1` the T/C (dose: 6.25 mg/kg/injection, schedule: Q01DX005 (ip), vehicle: saline) was 92 % of control, the T/C (dose: 12.5 mg/kg/injection, schedule: Q01DX005 (ip), vehicle: saline) was 86 % of control and the T/C (dose: 25.0 mg/kg/injection, schedule: Q01DX005 (ip), vehicle: saline) was 87 % of control. For the same molecule, the T/C (dose: 50.0 mg/kg/injection, schedule: Q01DX005 (ip), vehicle: saline) was 100 % of control.
In the case of `CC(=O)OCC1OC(S[As](C)C)C(OC(C)=O)C(OC(C)=O)C1OC(C)=O` (centres undefined), the T/C (dose: 25.0 mg/kg/injection, schedule: Q01DX009 (ip), vehicle: saline with Tween-80) was 114 % of control, the T/C (dose: 50.0 mg/kg/injection, schedule: Q01DX009 (ip), vehicle: saline with Tween-80) was 111 % of control and the T/C (dose: 100.0 mg/kg/injection, schedule: Q01DX009 (ip), vehicle: saline with Tween-80) was 116 % of control. The T/C (dose: 200.0 mg/kg/injection, schedule: Q01DX009 (ip), vehicle: saline with Tween-80) was 124 % of control.
`COC(=O)C1CC(C(=O)OC)c2nc3ccccc3nc21` (centres undefined) was tested, and the T/C (dose: 60.0 mg/kg/injection, schedule: Q01DX005 (ip), vehicle: Klucel (hydroxypropylcellulose) (HPC)) was 100 % of control and the T/C (dose: 120.0 mg/kg/injection, schedule: Q01DX005 (ip), vehicle: Klucel (hydroxypropylcellulose) (HPC)) was 98 % of control.
In the case of `O=C1OCCOCCSCCOCCOC(=O)c2cccc1n2`, the T/C (dose: 100.0 mg/kg/injection, schedule: Q04DX003 (ip), vehicle: Klucel (hydroxypropylcellulose) (HPC)) was 101 % of control, the T/C (dose: 200.0 mg/kg/injection, schedule: Q04DX003 (ip), vehicle: Klucel (hydroxypropylcellulose) (HPC)) was 102 % of control and the T/C (dose: 400.0 mg/kg/injection, schedule: Q04DX003 (ip), vehicle: Klucel (hydroxypropylcellulose) (HPC)) was 100 % of control.
